Reference: patent US20250009856A1, “METHODS FOR TREATING RESPIRATORY DISEASES” (MUCPharm Pty Ltd, priority 2021, published 2025)
Values joined by “and” are separate entries in the source; they are usually repeats but may differ in a detail not shown here. Identical values can stand only once.

Tests used:
[1] = Particle size distribution of aerosols by laser diffraction, Pari LC Sprint nebulizer; assay type: physicochemical; settings: mean
Method: The particle size distributions (PSD) of 5 formulations containing bromelain and acetylcysteine at different concentrations were determined. The formulations were aerosolized using a PARI TurboBOY SX compressor, combined with the Pari LC Sprint nebulizer (PARI GmbH, USA). The nebulizer was connected to a USP induction port (throat), and particle size was measured at flow rate of 15 L/min in Spraytec particle sizer (Malvern Instruments, Malvern, UK). Measurements were performed in triplicate. Results are expressed as D10, D50 and D90, indicating the particle diameter at 10, 50 and 90% in the cumulative distribution.
The formulations were prepared in saline (0.9% w/v) and kept at −20° C. prior to analysis. The formulations tested were: • 1. Control: Saline (sodium chloride 0.9% w/v) • 2. Low Concentration of Ac (8 mg/mL) • 3. High Concentration of Ac (60 mg/mL) • 4. Brom at 50 μg/mL • 5. Combination 1: Low Ac (8 mg/mL)+Brom (50 μg/mL) • 6. Combination 2: High Ac (60 mg/mL)+Brom (50 μg/mL)

[2] = Pipette flow speed after aerosol treatment; settings: AS; for Pipette flow speed (€), After: before 0.005 ± 0.001
Method: Artificial sputum was prepared following protocol as detailed by […] et al (Kirchner, S., et al., Use of artificial sputum medium to test antibiotic efficacy against Pseudomonas aeruginosa in conditions more relevant to the cystic fibrosis lung. Journal of visualized experiments: JOVE, 2012 (64)). Briefly 250 mg of porcine mucin, 200 mg of sperm DNA, 295 mg of diethylene triamine pentaacetic acid (DPTA), 25 mg sodium chloride, 110 mg potassium chloride, 140 mg Tris base were mixed in a volume of 45 ml of distilled water and pH adjusted to 7.0 using Trisbase. The volume of the solution was then adjusted to 50 ml. Further dilutions were then carried out to adjust viscosity as desired. Using a 0.5 ml glass pipette fixed at an angle of 60°, 0.5 ml of sample at 25° C. (ambient room temperature) was sucked up the pipette and the time taken to empty 0.3 ml of the sample was timed in sec. Pipette flow time (€) was calculated as follows: € (ml/sec)=0.3 ml/Time to empty 0.3 ml (sec) Artificial sputa (AS) were prepared as detailed above, and 1.5 ml of artificial sputum was carefully emptied into an endotracheal tube (in triplicates). A volume of 6.0 ml of NAC 10 mg/ml in PBS (pH.7.0) in triplicate was aerosolised using a nebulizer and passed over the sputum samples in the endotracheal tubes kept at 37° C. in a water bath. Similarly, the experiments were repeated using NAC 20 mg/ml in PBS (pH.7.0). The controls only received PBS (pH 7.0). The aerosol delivery time to empty 6.0 ml for each treatment was 25 min. The dynamic viscosity of the sputa was measured before and after using the capillary tube method, whilst the pipette flow time was also measured as described earlier using a 0.5 ml glass pipette. Samples were equilibrated to 25° C. before measurement A similar treatment as in the experiment described above for NAC was carried out using Bromelain (125 and 250 μg/ml) in PBS (pH.7.0) along with control using PBS (pH.7.0). Both dynamic viscosity and pipette flow time was measured as outlined earlier for both artificial and PMP simulated sputa models. Using a combination of NAC (20 mg/ml) with either 125 or 250 μg/ml Bromelain in PBS (pH.7.0), a similar investigation was carried out as outlined earlier and measurements were made for both artificial and simulated sputa models. D=(TREATED)-(UNTREATED/(UNTREATED)×100.

[3] = Pipette flow speed after aerosol treatment; parameters: species or system human; settings: SS; for Pipette flow speed (€), After: before 0.0137 ± 0.005
Method: Six grams of soft PMP mucin was homogenised using a shredder with phosphate buffer saline (PBS) (3.0 ml) with sonification and vortexed until a homogenous mixture was formed, with incubation at 37° C. to remove air bubbles and after which viscosity was adjusted (further dilutions with PBS). The pH was adjusted to 7.0 using either 1.0 M NaOH or 0.1 N Hydrochloric acid. Using a 0.5 ml glass pipette fixed at an angle of 60°, 0.5 ml of sample at 25° C. (ambient room temperature) was sucked up the pipette and the time taken to empty 0.3 ml of the sample was timed in sec. Pipette flow time (€) was calculated as follows: € (ml/sec)=0.3 ml/Time to empty 0.3 ml (sec) A similar investigation as above was carried out to determine a comparative dynamic viscosity and pipette flow time for PMP mucin simulated sputa (SS). A similar treatment as in the experiment described above for NAC was carried out using Bromelain (125 and 250 μg/ml) in PBS (pH.7.0) along with control using PBS (pH.7.0). Both dynamic viscosity and pipette flow time was measured as outlined earlier for both artificial and PMP simulated sputa models. Using a combination of NAC (20 mg/ml) with either 125 or 250 μg/ml Bromelain in PBS (pH.7.0), a similar investigation was carried out as outlined earlier and measurements were made for both artificial and simulated sputa models. D=(TREATED)−(UNTREATED/(UNTREATED)×100.

[4] = Sputum flow speed after mixing with BromAc, DNase and combinations; settings: agent without DNASE: BR(250 ug/ml), NAC(20 mg/ml) or both; 1 hour, 37 deg C; Cont(PBS) 0.0436
Method: (§1) Artificial sputa was prepared following methodology with ingredients as in earlier experiments. To 1.5 ml of artificial sputa in a vial was added 0.5 ml of reagent containing the required bromelain, NAC, DNase and their combinations. Control vials included 0.5 ml of PBS only. The mixture was vortex mixed and incubated in a shaker water bath at 37 deg C. At the end of 1 hour, the samples were retrieved, vortex mixed and equilibrated to ambient room temperature before measuring dynamic viscosity and pipette flow.
(§2) Dynamic viscosity was determined using the capillary tube method as in earlier experiments, whilst the pipette flow was evaluated using a 0.5 ml pipette inclined at 60 deg angle. The pipette flow was calculated as shown below.
Pipette flow (€)=0.45 ml sputa/time to empty (sec).

[5] = Dynamic viscosity after mixing with BromAc, DNase and combinations; settings: agent without DNASE: BR(25 ug/ml), NAC(20 mg/ml), or BR(250 ug/ml) + NAC(20 ug/ml); 1 hour, 37 deg C; Cont(PBS) 2.36
Method: as §1, §2

sheep lungs = experiment: Ventilated sheep lung model, endotracheal tube plugged with PMP mucin; settings: nebulised twice over 60 minutes; saline showed slight drop

CC(=O)N[C@@H](CS)C(=O)O [NAC, N-acetylcysteine]
D10 ([1]; NAC 8 mg/mL in saline): 1.19 µm | D50 ([1]; NAC 8 mg/mL in saline): 3.26 μm | D90 ([1]; NAC 8 mg/mL in saline): 8.23c | D10 ([1]; NAC 60 mg/mL in saline): 1.12 µm | D50 ([1]; NAC 60 mg/mL in saline): 2.87b μm | D90 ([1]; NAC 60 mg/mL in saline): 7.47 µm | D (%), increase of pipette flow speed (€) ([2]; aerosol NAC 10 mg/ml): 28% and 28 ↑ % | Pipette flow speed (€), After ([2]; aerosol NAC 10 mg/ml): 0.0064 ± 0.003 mL/s | D (%), increase of pipette flow speed (€) ([2]; aerosol NAC 20 mg/ml): 40% and 40 ↑ % | Pipette flow speed (€), After ([2]; aerosol NAC 20 mg/ml): 0.007 ± 0.001 mL/s | D (%), increase of pipette flow speed (€) ([3]; aerosol NAC 10 mg/ml): 34% and 34 ↑ % | Pipette flow speed (€), After ([3]; aerosol NAC 10 mg/ml): 0.0183 ± 0.001 mL/s | D (%), increase of pipette flow speed (€) ([3]; aerosol NAC 20 mg/ml): 46% and 46 ↑ % | Pipette flow speed (€), After ([3]; aerosol NAC 20 mg/ml): 0.02 ± 0.002 mL/s | Sputum flow speed (€) [4]: 0.05 mL/s | Dynamic viscosity (¥) [5]: 1.640 cSt | Minute volume (MV) over 60 minutes (sheep lungs): substantial rise in MV
